# Target: T1, StOFOR2 (Sulfurisphaera tokodaii, UniProt Q96XT2+Q96XT4)
# T1 construct: gene ST2435; recombinant in E. coli C43(DE3), genes from S. tokodaii genomic DNA in pOFORAB (pET-17b based), untagged; (ab)2 heterotetramer with TPP, Mg2+, [4Fe-4S]
# Test: X-ray crystal structure, […] Å
# Type: binding
# Details: crystal soaked with 50 mM pyruvate for 30 min; active site, unreacted pyruvate
# T1 sequence (Q96XT2 whole entry): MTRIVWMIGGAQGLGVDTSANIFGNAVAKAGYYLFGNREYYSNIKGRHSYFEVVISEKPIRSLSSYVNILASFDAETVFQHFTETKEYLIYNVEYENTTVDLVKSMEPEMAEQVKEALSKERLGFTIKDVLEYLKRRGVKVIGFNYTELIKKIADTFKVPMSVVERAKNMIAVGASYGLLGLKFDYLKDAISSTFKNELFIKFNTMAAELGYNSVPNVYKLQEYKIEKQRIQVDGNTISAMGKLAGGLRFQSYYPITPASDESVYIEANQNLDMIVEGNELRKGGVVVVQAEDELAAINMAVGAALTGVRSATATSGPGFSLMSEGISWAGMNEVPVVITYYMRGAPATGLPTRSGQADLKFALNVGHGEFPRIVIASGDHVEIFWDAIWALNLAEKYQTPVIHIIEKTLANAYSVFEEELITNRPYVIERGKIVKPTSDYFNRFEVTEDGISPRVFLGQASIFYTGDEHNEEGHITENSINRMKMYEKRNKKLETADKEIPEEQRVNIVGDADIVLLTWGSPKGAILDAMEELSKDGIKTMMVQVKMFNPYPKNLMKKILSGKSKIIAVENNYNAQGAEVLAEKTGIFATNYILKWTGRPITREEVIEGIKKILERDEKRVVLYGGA
# T1 sequence (Q96XT4 whole entry): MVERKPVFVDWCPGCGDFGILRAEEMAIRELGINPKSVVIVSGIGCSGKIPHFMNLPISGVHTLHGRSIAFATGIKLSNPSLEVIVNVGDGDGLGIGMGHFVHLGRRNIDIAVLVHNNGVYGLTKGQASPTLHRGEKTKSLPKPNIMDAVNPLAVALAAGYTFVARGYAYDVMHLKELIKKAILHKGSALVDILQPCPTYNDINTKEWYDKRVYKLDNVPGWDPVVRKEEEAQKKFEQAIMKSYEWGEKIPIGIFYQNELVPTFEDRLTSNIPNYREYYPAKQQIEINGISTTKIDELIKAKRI
smiles,measurement,value
CC(=O)C(=O)O [pyruvate],"X-ray crystal structure, 2.2 Å",we observed a separate density peak corresponding to the approximate size and shape of an unreacted pyruvate

# Reference: PMC5020499, “Crystal structures of archaeal 2-oxoacid:ferredoxin oxidoreductases from Sulfolobus tokodaii” (Scientific Reports, 2016)
